Assay results taken from patent US20020182614A1, “Expression analysis of inhibitor of differentiation nucleic acids and polypeptides useful in the diagnosis and treatment of prostate cancer” (priority 2000, published 2002).

Tests used:
[1] = system: LNCaP cells
Method: Human prostatic cancer cell lines LNCaP, DU-145, PC-3, and Tsu-prl were obtained from ATCC. LNCaP cancer cells were maintained in humidified atmosphere of 5% CO2 in air in RPMI 1640 medium supplemented with 10% fetal calf serum (Life Technologies, Inc, Rockville, Md.), 3 mM L-glutamine, 100 μg/ml streptomycin and 100 units/ml penicillin. Other lines were maintained in DMEM containing 3 mM L-glutamine, 100 μg/ml streptomycin, 100 units/ml penicillin, and 10% FCS in humidified atmosphere of 5% CO2. To examine the effects of steroids, cells were cultured in RPMI 1640 medium containing 5% FCS treated with dextran coated charcoal (Hyclone, Logan, Utah) for 24 hs before treatment. Cells were grown in the absence or presence of 10 nM DHT for 0, 2, 4, 6, 12, 24, 48, and 72 hs. They were collected and frozen at each time point. Two hundred μl of medium were collected from each flask for PSA assay.
To verify the effect of DHT on the growth of LNCaP cells, cells at 3,000 cells/well were plated in 96-well plates for 24 hs before treatment with DHT. After 72 hs, MTT was added to each well and incubated at 37° C. for four hs. At the end of incubation, the supernatant was removed and 100 μl DMSO was added to each well to dissolve […]. Plates were subsequently read in a plate reader at […].

[2] = system: ID-3; details: LNCaP cells, in the presence of androgen
[3] = system: PSA
[4] = system: PSA; details: LNCaP cells, mRNA
[5] = system: ID-1; details: LNCaP cells, in the presence of androgen

With `C[C@]12CCC(=O)C[C@@H]1CC[C@@H]1[C@@H]2CC[C@]2(C)[C@@H](O)CC[C@@H]12` [DHT, dihydrotestosterone] the growth-stimulatory effect ([1]; 10 nM DHT) was “robust growth-stimulatory effect”, the “growth of LNCaP cells” value ([1]; MTT assay, FIG. 1A) was “stimulated” and the ID-3 expression level [2] was “reduced”. The PSA production [3] was “increased in a dose-dependent manner”, the “time at which PSA signal was first detected” value [3] was 12 h and the “time of maximal PSA level” value [3] was “about 48 hs”. The “PSA expression increase relative to control” value ([4]; 12 hours) was 3 fold, the “PSA expression induction relative to control” value ([4]; 72 hours) was “approximately 4 fold” and the ID-1 expression level [5] was “reduced”.
